Data published in US6841566B2, “Viral polymerase inhibitors” (Boehringer Ingelheim, Ltd., priority 2001, dated 2005).

What follows are compounds tested on Huh7 cells that stably maintain a subgenomic HCV replicon (S22.3 cell-line) (assay: Cell based HCV RNA replication assay (S22.3 replicon cells, real-time RT-PCR)). Conditions: Hepatitis C virus, Huh-7, 72 hours.
Protocol: Huh7 cells that stably maintain a subgenomic HCV replicon were established as previously described (Lohman et al., 1999. Science 285: 110-113) and designated as the S22.3 cell-line. S22.3 cells were maintained in Dulbecco's Modified […] Medium (DMEM) supplemented with 10% FBS and 0.5 mg/mL neomycin (Standard Medium). During the assay, DMEM medium supplemented with 10% FBS, containing 0.5% DMSO and lacking neomycin was used (Assay Medium). 16 hours prior to compound addition, S22.3 cells are trypsinized and diluted to 100 000 cells/ml in Standard Medium. 100μL (10 000 cells) are distributed into each well of a 96-well plate. The plate was then incubated at 37° C. with 5% CO2 until the next day.
10 μL of test compound (in 100% DMSO) was added to 2 ml of Assay Medium for a final DMSO concentration of 0.5% and the solution was sonicated for 15 min and filtered through a […] Millipore Filter Unit. 900 μl was transferred into row A of a Polypropylene Deep-Well Titer Plate. Rows B to H, contain 400 μL aliquots of Assay Medium (containing 0.5% DMSO), and were used to prepare serial dilutions (1/2) by transferring 400 μl from row to row (no compound was included in row H).
Cell culture medium was aspirated from the 96-well plate containing the S22.3 cells. 175 μL of assay medium with the appropriate dilution of test compound was transferred from each well of the compound plate to the corresponding well of the cell culture plate (row H was used as the “No inhibition control”). The cell culture plate was incubated at 37° C. with 5% CO2 for 72 hours.
Following the 72 hour incubation period, the total cellular RNA was extracted from the S22.3 cells of the 96-well plate using the RNeasy 96 kit (Qiagen®, RNeasy Handbook. 1999.). Briefly, assay medium was completely removed from cells and 100 μL of RLT buffer (Qiagen®) containing 143 mM β-mercaptoethanol was added to each well of the 96-well cell-culture plate. The microplate was gently shaken for 20 sec. 100 μL of 70% ethanol was then added to each microplate well, and mixed by pipetting. The lysate was removed and applied to the wells of a RNeasy 96 (Qiagen®) plate that was placed on top of a Qiagen® Square-Well Block. The RNeasy 96 plate was sealed with tape and the Square-Well Block with the RNeasy 96 plate was loaded into the holder and placed in a rotor bucket of a 4K15C centrifuge. The sample was centrifuged at 6000 rpm (˜5600×g) for 4 min at room temperature. The tape was removed from the plate and 0.8 ml of Buffer RW1 (Qiagen® RNeasy 96 kit) was added to each well of the RNeasy 96 plate. The RNeasy 96 plate was sealed with a new piece of tape and centrifuged at 6000 rpm for 4 min at room temperature. The RNeasy 96 plate was placed on top of another clean Square-Well Block, the tape removed and 0.8 ml of Buffer RPE (Qiagen® RNeasy 96 kit) was added to each well of the RNeasy 96 plate. The RNeasy 96 plate was sealed with a new piece of tape and centrifuged at 6000 rpm for 4 min at room temperature. The tape was removed and another 0.8 ml of Buffer RPE (Qiagen® RNeasy 96 kit) was added to each well of the RNeasy 96 plate. The RNeasy 96 plate was sealed with a new piece of tape and centrifuged at 6000 rpm for 10 min at room temperature. Tape was removed, the RNeasy 96 plate was placed on top of a rack containing 1.2-mL collection microtubes. The RNA was eluted by adding 50 μL of RNase-free water to each well, sealing plate with a new piece of tape and incubated for 1 min at room temperature. The plate was then centrifuged at 6000 rpm for 4 min at room temperature. The elution step was repeated with a second volume of 50 μl RNase-free water. The microtubes with total cellular RNA are stored at −70° C.
RNA was quantified on the STORM® system (Molecular Dynamics®) using the RiboGreen® RNA Quantification Kit (Molecular Probes®). Briefly, the RiboGreen reagent was diluted 200-fold in TE (10 mM Tris-HCl pH=7.5, 1 mM EDTA). Generally, 50 μL of reagent was diluted in 10 mL TE. […]
`C[C@@H](NC(=O)c1ccc2c(c1)nc(-c1ccc[nH]1)n2C1CCCCC1)C(=O)Nc1ccc(/C=C/C(=O)O)cc1` [compound 2004] showed an EC50 of 5 to 50 µM. `CC(NC(=O)c1ccc2c(c1)nc(-c1ccoc1)n2C1CCCCC1)C(=O)Nc1ccc(/C=C/C(=O)O)cc1` (stereo not shown) [compound 1054] gave an EC50 of 5 to 50 µM. Work on `Cc1nc(C(=O)O)sc1-c1ccc(NC(=O)C2(NC(=O)c3ccc4c(c3)nc(-c3ccoc3)n4C3CCCCC3)CCCC2)cc1` [compound 1091] yielded an EC50 of at most 5 µM. `O=C(O)/C=C/c1ccc(NC(=O)C2(NC(=O)c3ccc4c(c3)nc(-c3ccsc3)n4C3CCCCC3)CCCC2)cc1` [compound 2001] was tested, and the EC50 was at most 5 µM. In the case of `O=C(O)/C=C/c1ccc(NC(=O)C2(NC(=O)c3ccc4c(c3)nc(-c3ccccc3)n4C3CCCCC3)CCCC2)cc1` [compound 2006], the EC50 is reported as at most 5 µM. In the case of `Cn1cccc1-c1nc2cc(C(=O)NC3(C(=O)Nc4ccc(/C=C/C(=O)O)cc4)CCCC3)ccc2n1C1CCCCC1` [compound 2048], the EC50 is reported as at most 5 µM. Work on `O=C(O)/C=C/c1ccc(NC(=O)CNC(=O)c2ccc3c(c2)nc(-c2ccoc2)n3C2CCCCC2)cc1` [compound 1079] yielded an EC50 of 5 to 50 µM. For `O=C(O)/C=C/c1ccc(NC(=O)C2(NC(=O)c3ccc4c(c3)nc(-c3ccco3)n4C3CCCCC3)CCCC2)cc1` [compound 2049], the EC50 was at most 5 µM. In the case of `O=C(O)C=Cc1ccc(NC(=O)C2(NC(=O)c3ccc4c(c3)nc(-c3ccco3)n4C3CC4CCC3C4)CCCC2)cc1` (mixture of isomers) [compound 2017], the EC50 is reported as at most 5 µM. Work on `CCn1c(C(=O)O)cc2cc(NC(=O)C3(NC(=O)c4ccc5c(c4)nc(-c4ccoc4)n5C4CCCCC4)CCCC3)ccc21` [compound 1085] yielded an EC50 of at most 5 µM. For `CC(C)(C)OC(=O)N1CCC(NC(=O)c2ccc3c(c2)nc(-c2ccoc2)n3C2CCCCC2)(C(=O)Nc2ccc(/C=C/C(=O)O)cc2)CC1` [compound 1089], the EC50 was at most 5 µM. Compound `O=C(O)/C=C/c1ccc(NC(=O)C2(NC(=O)c3ccc4c(c3)nc(-c3ccccn3)n4C3CCCC3)CCCC2)cc1` [compound 2012] has an EC50 of 5 to 50 µM. `O=C(O)/C=C/c1ccc(NC(=O)C2(NC(=O)c3ccc4c(c3)nc(-c3ccoc3)n4C3CCCCC3)CCNCC2)cc1` [compound 1100] was tested, and the EC50 was at most 5 µM. For `CC(NC(=O)c1ccc2c(c1)nc(-c1ccoc1)n2C1CCCCC1)C(=O)Nc1cccc(-c2cccc(N)c2)c1` (stereo not shown) [compound 1022], the EC50 was 5 to 50 µM. In the case of `CC1CCCCC1n1c(-c2ccoc2)nc2cc(C(=O)NC3(C(=O)Nc4ccc(C=CC(=O)O)cc4)CCCC3)ccc21` (stereo not shown) [compound 2045], the EC50 is reported as at most 5 µM. For `Cc1oc(-c2cccc(NC(=O)[C@@H](C)NC(=O)c3ccc4c(c3)nc(-c3ccoc3)n4C3CCCCC3)c2)cc1C(=O)O` [compound 1074], the EC50 was at most 5 µM. Compound `C/C(=C\c1ccc(NC(=O)C2(NC(=O)c3ccc4c(c3)nc(-c3ccoc3)n4C3CCCCC3)CCCC2)cc1)C(=O)O` [compound 1083] has an EC50 of at most 5 µM. In the case of `O=C(O)/C=C/c1ccc(NC(=O)C2(NC(=O)c3ccc4c(c3)nc(-c3ccoc3)n4C3CCCCC3)CCCC2)cc1` [compound 1071], the EC50 is reported as at most 5 µM. Compound `CC[C@@H](NC(=O)c1ccc2c(c1)nc(-c1ccoc1)n2C1CCCCC1)C(=O)Nc1ccc(/C=C/C(=O)O)cc1` [compound 1075, (E)-3-[4-((R)-2-{[1-(1-Cyclohexyl-2-furan-3-yl-1H-benzoimidazol-5-yl)-methanoyl]-amino}-butanoylamino)-phenyl]-acrylic acid] has an EC50 of 5 to 50 µM. In the case of `O=C(O)C=Cc1ccc(NC(=O)C2(NC(=O)c3ccc4c(c3)nc(-c3ccoc3)n4C3CC4CCC3C4)CCCC2)cc1` (mixture of isomers) [compound 2021], the EC50 is reported as at most 5 µM. `O=C(O)/C=C/c1ccc(NC(=O)C2(NC(=O)c3ccc4c(c3)nc(-c3ccc[nH]3)n4C3CCCCC3)CCCC2)cc1` [compound 2007] showed an EC50 of at most 5 µM. `CC1CCCC(C)C1n1c(-c2ccco2)nc2cc(C(=O)NC3(C(=O)Nc4ccc(C=CC(=O)O)cc4)CCCC3)ccc21` (mixture of isomers) [compound 2033] gave an EC50 of at most 5 µM. Compound `CC(NC(=O)c1ccc2c(c1)nc(-c1ccoc1)n2C1CCCCC1)C(=O)Nc1ccc(-c2ccc(C(=O)O)o2)cc1` (stereo not shown) [compound 1060] has an EC50 of 5 to 50 µM. `C[C@@H](NC(=O)c1ccc2c(c1)nc(-c1ccccc1)n2C1CCCCC1)C(=O)Nc1ccc(/C=C/C(=O)O)cc1` [compound 2003] showed an EC50 of 5 to 50 µM. `CCN1CCC(NC(=O)c2ccc3c(c2)nc(-c2ccoc2)n3C2CCCCC2)(C(=O)Nc2ccc(-c3nc(C(=O)O)cs3)cc2)CC1` [compound 1108] gave an EC50 of at most 5 µM. For `O=C(O)/C=C/c1ccc(NC(=O)C2(NC(=O)c3ccc4c(c3)nc(-c3cccs3)n4C3CCCCC3)CCCC2)cc1` [compound 2050], the EC50 was at most 5 µM. `O=C(O)/C=C/c1ccc(NC(=O)C2(NC(=O)c3ccc4c(c3)nc(-c3ccoc3)n4C3CCCCC3)CCC2)cc1` [compound 1094] was tested, and the EC50 was at most 5 µM. With `O=C(O)/C=C/c1ccc(NC(=O)C2(NC(=O)c3ccc4c(c3)nc(-c3ccccn3)n4C3CCCCC3)CCCC2)cc1` [compound 2005] the EC50 was at most 5 µM. For `Cn1c(C(=O)O)cc2cc(NC(=O)C3(NC(=O)c4ccc5c(c4)nc(-c4ccoc4)n5C4CCCCC4)CCCNC3)ccc21` (stereo not shown) [compound 1104], the EC50 was at most 5 µM. `O=C(NC1(C(=O)Nc2ccc(-c3ccc(C(=O)O)o3)cc2)CCCC1)c1ccc2c(c1)nc(-c1ccoc1)n2C1CCCCC1` [compound 1080] showed an EC50 of at most 5 µM. In the case of `Cc1cc(NC(=O)C2(NC(=O)c3ccc4c(c3)nc(-c3ccoc3)n4C3CCCCC3)CCCC2)ccc1/C=C/C(=O)O` [compound 1088], the EC50 is reported as at most 5 µM. With `C[C@@H](NC(=O)c1ccc2c(c1)nc(-c1ccoc1)n2C1CCCCC1)C(=O)Nc1ccc(/C=C/C(=O)O)cc1` [compound 1057] the EC50 was 5 to 50 µM. For `Cc1cc(=O)oc2cc(NC(=O)[C@@H](C)NC(=O)c3ccc4c(c3)nc(-c3ccoc3)n4C3CCCCC3)ccc12` [compound 1026], the EC50 was at most 5 µM. `CC1CCCC(C)C1n1c(-c2ccccn2)nc2cc(C(=O)NC3(C(=O)Nc4ccc(C=CC(=O)O)cc4)CCCC3)ccc21` (mixture of isomers) [compound 2036] showed an EC50 of at most 5 µM. In the case of `O=C(NC1(C(=O)Nc2ccc3nc(S)sc3c2)CCCC1)c1ccc2c(c1)nc(-c1ccoc1)n2C1CCCCC1` [compound 1078], the EC50 is reported as at most 5 µM. With `C[C@H](NC(=O)c1ccc2c(c1)nc(-c1ccoc1)n2C1CCCCC1)C(=O)Nc1ccc(/C=C/C(=O)O)cc1` [compound 1056] the EC50 was 5 to 50 µM. Work on `O=C(NC1(C(=O)Nc2ccc3[nH]c(C(=O)O)cc3c2)CCCC1)c1ccc2c(c1)nc(-c1ccoc1)n2C1CCCCC1` [compound 1098] yielded an EC50 of 5 to 50 µM. For `C[C@@H]1CCCC[C@H]1n1c(-c2ccccn2)nc2cc(C(=O)NC3(C(=O)Nc4ccc(/C=C/C(=O)O)cc4)CCCC3)ccc21` (racemic) [compound 2044], the EC50 was at most 5 µM. For `CCN1CCC(NC(=O)c2ccc3c(c2)nc(-c2ccoc2)n3C2CCCCC2)(C(=O)Nc2ccc(-c3nc(C(N)=O)cs3)cc2)CC1` [compound 1109], the EC50 was at most 5 µM. With `Cn1c(C(=O)O)cc2cc(NC(=O)C3(NC(=O)c4ccc5c(c4)nc(-c4ccoc4)n5C4CCCCC4)CCCC3)ccc21` [compound 1077] the EC50 was at most 5 µM. For `C[C@@H](NC(=O)c1ccc2c(c1)nc(-c1ccccn1)n2C1CCCCC1)C(=O)Nc1ccc(/C=C/C(=O)O)cc1` [compound 2002], the EC50 was at most 5 µM. `O=C(O)C=Cc1ccc(NC(=O)C2(NC(=O)c3ccc4c(c3)nc(-c3cccs3)n4C3CC4CCC3C4)CCCC2)cc1` (mixture of isomers) [compound 2019] gave an EC50 of at most 5 µM. Work on `O=C(O)/C=C/c1ccc(NC(=O)C2(NC(=O)c3ccc4c(c3)nc(-c3ccoc3)n4C3CCCC3)CCCC2)cc1` [compound 2013] yielded an EC50 of 5 to 50 µM.
